The source of these data is paper PMC9103789 (International Journal of Molecular Sciences, 2022).

What is called kinact/KI is the second-order rate constant of inactivation. For orientation: kinact means the maximal first-order rate at which the target is inactivated. What is called Ki is a measure of affinity in units of concentration, obtained from inhibition or displacement. As a reminder, the IC50 is the midpoint of a concentration-inhibition curve.

Details of data set [1]: method as in PMID 25392942. The settings on record: after oral administration of WZC, healthy Chinese, plasma; cited from earlier work.
For data set [2], the target named is T1, CYP3A5 (Homo sapiens, UniProt P20815).
T1 construct: For the CYP3A5 experiment, CYP3cide and CYP3A5 * 1/*3 HLMs were pre-warmed; tissue Transheep Co., Ltd. (Shanghai, China) lot: 0710232; host or cells: human liver microsomes, CYP3A5 *1/*3 genotype, treated with CYP3cide
Briefly: Time-dependent inhibition (TDI) assay in CYP3A5 *1/*3 HLMs with CYP3cide. Format: in vitro ADME. As to the method:
A two-step protocol was followed to perform the general TDI assay. […] The reaction was initiated upon addition of NADPH (1 mM). At the designated time points (0, 5, 10, 20, or 30 min), an aliquot (20 μL) of the incubation mixture was transferred to a 180-microliter pre-warmed solution containing PBS (0.1 M), testosterone (200 μM) and NADPH (1 mM) for another 10-minute incubation. The reaction was stopped with ice-cooled acetonitrile containing prednisolone (0.315 μM). […] For the CYP3A5 experiment, CYP3cide and CYP3A5 * 1/*3 HLMs were pre-warmed for 3 min before the reaction initiation. […] All experiments were carried out in triplicates.
Kinetic parameters of the TDI (KI and kinact refer to the inhibitor concentration causing half-maximal inactivation and the maximal inactivation rate constant, respectively) were determined with Equation (3). kobs refers to the observed inactivation rate of the affected enzyme, determined by the negative slope of the linear regression. kinact is calculated with the negative reciprocal value of the straight line at the Y-intercept, while the interception on X-axis represents KI. [I] stands for the inhibitor concentration. A high ratio of kinact over KI indicates great inhibitory potency. (3) kobs=kinact×[I]/KI+[I]

In data set [3] the test system is CYP3A. Description: Reversible inhibition (RI) assay, tacrolimus metabolism in pooled HLMs. Format: in vitro ADME, human. The note with it: human, pooled human liver microsomes, pH 7.4, probe tacrolimus (0.25, 0.5, 1, 2 μM), Dixon plot, tacrolimus substrate. As to the method:
(§1) The reactions started upon the addition of NADPH and were terminated after 10 min by adding 200 μL of ice-cooled acetonitrile containing 0.1 μM of ascomycin (internal standard). […] The reaction was also terminated with ice-cooled acetonitrile. All experiments were carried out in triplicates. […] The intersection of lines was used to calculate the Ki value.
A general note: Liver microsomes are vesicles of endoplasmic reticulum, rich in cytochrome P450 enzymes.

Data set [4] concerns CYP3A (pooled HLMs). The description is as above. Format: in vitro ADME, human. The note with it: Dixon plot. As to the method:
as §1

Data set [5] has as its target CYP3A. Description: Time-dependent inhibition (TDI) assay in pooled HLMs. The settings on record: for kinact: human, pooled human liver microsomes, probe testosterone (200 μM), 6β-hydroxytestosterone formation. Format: in vitro ADME, human. As to the method:
(§2) A two-step protocol was followed to perform the general TDI assay. […] The reaction was initiated upon addition of NADPH (1 mM). At the designated time points (0, 5, 10, 20, or 30 min), an aliquot (20 μL) of the incubation mixture was transferred to a 180-microliter pre-warmed solution containing PBS (0.1 M), testosterone (200 μM) and NADPH (1 mM) for another 10-minute incubation. […] For the CYP3A5 experiment, CYP3cide and CYP3A5 * 1/*3 HLMs were pre-warmed for 3 min before the reaction initiation. […] All experiments were carried out in triplicates.
(§3) [I] stands for the inhibitor concentration. A high ratio of kinact over KI indicates great inhibitory potency. (3) kobs=kinact×[I]/KI+[I]

Data set [6] deals with T2, CYP3A5 (CYP3A5 *1/*3 HLMs + CYP3cide) (Homo sapiens, UniProt P20815).
T2 construct: For the CYP3A5 experiment, CYP3cide and CYP3A5 * 1/*3 HLMs were pre-warmed; tissue Transheep Co., Ltd. (Shanghai, China) lot: 0710232; host or cells: human liver microsomes, CYP3A5 *1/*3 genotype, treated with CYP3cide
Briefly: Reversible inhibition (RI) assay in genotyped HLMs with CYP3cide. Format: in vitro ADME. The settings on record: Dixon plot, tacrolimus substrate. As to the method:
(§4) The reactions started upon the addition of NADPH and were terminated after 10 min by adding 200 μL of ice-cooled acetonitrile containing 0.1 μM of ascomycin (internal standard). […] The reaction was also terminated with ice-cooled acetonitrile. All experiments were carried out in triplicates.
(§5) Linear regression implemented in GraphPad Prism was plotted with the reciprocal value of metabolic reaction rate (1/v) against inhibitor concentration. The intersection of lines was used to calculate the Ki value.

Details of data set [7]: method as in PMID 32250458. The note with it: cited from earlier work.
Details of data set [8]: method as in PMID 24195812. The note with it: rats, oral administration of SZB; cited from earlier work.
Data set [9] is described as follows: Intrinsic clearance in human liver microsomes (in-house data). The format is in vitro ADME. The settings on record: read-out: CLint,HLM. The source says: All physicochemical and in vitro pharmacokinetic parameters were obtained from the literature or predicted by Simcyp® Simulator (version 16, Certara, Sheffield, U.K.). The intrinsic clearance value of pooled HLMs and human tacrolimus PBPK model was retrieved from our previous publication. The models for CYP3A5 expressers/non-expressers were built by modifying our established model with intrinsic clearance values of each CYP isoform. With the inhibitory parameters acquired from our experiments, a DDI module was incorporated into the PBPK model of tacrolimus.

The subject of data set [10] is CYP3A. Briefly: IC50 shift assay in pooled HLMs (testosterone 6β-hydroxylation). The format is in vitro ADME. The note with it: human, pooled human liver microsomes, pH 7.4, probe testosterone (200 μM); for IC50 at 30 min / IC50: pooled HLMs; for IC50 at 30 min: 30 min preincubation with NADPH; for IC50: no preincubation. As to the method: Pooled HLMs were used in this assay to determine the IC50 shift and identify time-dependent inhibition. The experiment was divided into two groups, depending on preincubation status. […] In all samples, the final concentrations of organic solvents were not more than 1% (V/V). Schizandrol (A or B) was pre-incubated with the pooled HLMs and testosterone for 3 min at […]. In the groups without 30-minute preincubation, the reaction was started upon the addition of NADPH and terminated by 200 μL of ice-cooled methanol containing 0.315 μM of prednisolone (internal standard). […] Next, testosterone was added to initiate the reaction. The reaction was terminated with the same method. All experiments were carried out in triplicates.
The formation of 6β-hydroxytestosterone in a control group was used as a surrogate marker for remaining enzymes’ activity. […] IC50 shift value was determined by Equation (2). […] (2) IC50 shift=IC50 without NADPH preincubation/IC50 with NADPH preincubation

Data set [11] concerns the target T3, CYP3A4 (Homo sapiens, UniProt P08684).
T3 construct: replacing pooled HLMs with CYP3A5 * 3/*3 HLMs; tissue Transheep Co., Ltd. (Shanghai, China) lot: 0710253; host or cells: human liver microsomes, CYP3A5 *3/*3 genotype
Briefly: Time-dependent inhibition (TDI) assay in CYP3A5 *3/*3 HLMs. The format is in vitro ADME. The note with it: for KI / kinact/KI: CYP3A4, genotyped HLMs; for kinact: human, CYP3A5 *3/*3 genotyped human liver microsomes, probe testosterone (200 μM), 6β-hydroxytestosterone formation. As to the method:
as §2, §3

In data set [12] the target is T4, CYP3A4 (CYP3A5 *3/*3 HLMs) (Homo sapiens, UniProt P08684).
T4 construct: replacing pooled HLMs with CYP3A5 * 3/*3 HLMs; tissue Transheep Co., Ltd. (Shanghai, China) lot: 0710253; host or cells: human liver microsomes, CYP3A5 *3/*3 genotype
Briefly: Reversible inhibition (RI) assay in genotyped HLMs. The format is in vitro ADME. The settings on record: Dixon plot, tacrolimus substrate. As to the method: as §4, §5

Where “and” joins values, the source holds several entries; their conditions need not be identical. Equal values may be shown once.

T3 sequence (P08684 whole entry): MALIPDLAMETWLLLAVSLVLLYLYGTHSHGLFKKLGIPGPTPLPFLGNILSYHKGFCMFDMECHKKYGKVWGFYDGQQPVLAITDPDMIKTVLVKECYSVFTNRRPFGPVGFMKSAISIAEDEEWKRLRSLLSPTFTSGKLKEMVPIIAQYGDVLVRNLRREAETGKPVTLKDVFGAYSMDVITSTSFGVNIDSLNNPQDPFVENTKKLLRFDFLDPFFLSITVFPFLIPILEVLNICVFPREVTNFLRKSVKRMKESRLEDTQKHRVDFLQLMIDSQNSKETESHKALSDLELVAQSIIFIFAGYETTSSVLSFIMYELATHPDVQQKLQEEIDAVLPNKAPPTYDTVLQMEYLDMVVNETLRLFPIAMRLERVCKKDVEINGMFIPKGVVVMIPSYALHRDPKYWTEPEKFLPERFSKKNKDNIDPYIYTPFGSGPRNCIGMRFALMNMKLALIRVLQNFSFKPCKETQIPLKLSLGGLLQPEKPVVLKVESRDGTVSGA
T1 sequence (P20815 whole entry): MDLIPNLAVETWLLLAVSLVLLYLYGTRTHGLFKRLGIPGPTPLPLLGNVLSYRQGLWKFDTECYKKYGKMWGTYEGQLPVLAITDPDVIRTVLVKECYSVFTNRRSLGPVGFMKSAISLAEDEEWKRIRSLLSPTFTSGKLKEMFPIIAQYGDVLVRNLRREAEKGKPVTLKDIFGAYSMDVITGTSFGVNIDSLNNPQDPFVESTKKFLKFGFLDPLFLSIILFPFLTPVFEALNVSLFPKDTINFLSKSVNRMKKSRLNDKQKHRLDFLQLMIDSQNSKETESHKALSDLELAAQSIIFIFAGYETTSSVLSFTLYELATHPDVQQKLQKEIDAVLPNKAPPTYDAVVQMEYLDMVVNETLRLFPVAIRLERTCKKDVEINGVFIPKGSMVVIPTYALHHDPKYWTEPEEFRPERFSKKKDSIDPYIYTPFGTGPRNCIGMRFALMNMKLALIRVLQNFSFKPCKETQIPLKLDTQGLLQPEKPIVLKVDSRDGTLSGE

`COc1cc2c(c(OC)c1OC)-c1c(cc3c(c1OC)OCO3)C[C@H](C)[C@@](C)(O)C2` [SZB, Schizandrol B]: in data set [1], the “AUC, observed” value was 242.97 ng·h/mL; the “Cmax, observed” value is 65.18 ng/mL; the “Tmax, observed” value is on record as 1.13 h. Also, in data set [2] (CYP3A5, genotyped HLMs), the KI was 500 nM and the kinact/KI was 300 M⁻¹ s⁻¹. Further, the kinact in data set [2] (human, CYP3A5 *1/*3 genotyped human liver microsomes with CYP3cide, probe testosterone (200 μM), 6β-hydroxytestosterone formation, with CYP3cide (concentration not stated for this test)) was 0.00015 s⁻¹. The molecule further showed a Ki at 10 min in data set [3] of 5820 nM. The “reversible inhibition on CYP3A (pattern)” value in data set [4] was “competitive and reversible inhibition pattern”. Further, in [5], the KI stood at 430 nM, the kinact/KI was 1705.5 M⁻¹ s⁻¹ and the inactivation rate constant (kinact) is 0.000733 s⁻¹. Further, the Ki in data set [6] was 2030 nM and 2180 nM. Further, the “increase in bosutinib exposure” value in [7] is given as 200%. Besides, the “increase in systemic exposure of tacrolimus” value in data set [8] was 598.4%. Also, in data set [9], the microsomal CLint stood at 4.5 µL/min/mg. In data set [10], the half-maximal inhibitory concentration (IC50) at 30 min was 560 nM and the IC50 was determined as 12000 nM. Also, in data set [11], the KI stood at 690 nM, the kinact/KI was 8937 M⁻¹ s⁻¹ and the kinact was 0.00617 s⁻¹. The inhibitory constant (Ki) in data set [12] was 2180 nM and 2030 nM.

Turning to `COc1cc2c(c(OC)c1OC)-c1c(cc(OC)c(OC)c1OC)C[C@](C)(O)[C@@H](C)C2` [SZA, Schizandrol A], in data set [1], the “AUC, observed” value is 467.14 ng·h/mL; the “Cmax, observed” value is reported as 111.37 ng/mL; the “Tmax, observed” value is reported as 1.81 h. The “reversible inhibition on CYP3A (pattern)” value in data set [4] is “little reversible inhibition”. In addition, in [5], the KI worked out at 15625 nM, the inactivation efficiency (kinact/KI) came to 30.93 M⁻¹ s⁻¹ and the kinact was 0.000483 s⁻¹. Moreover, the microsomal CLint in data set [9] amounted to 50 µL/min/mg. Moreover, the IC50 shift at 30 min in data set [10] (IC50 without NADPH preincubation / IC50 with NADPH preincubation) was found to be 1.57. For the same molecule, in data set [10], the IC50 at 30 min stood at 40400 nM and the IC50 is 63500 nM. Also, in data set [11], the KI was found to be 15380 nM, the kinact/KI stood at 26 M⁻¹ s⁻¹ and the kinact was 0.0004 s⁻¹.
